This is an account of results in patent US3954793A, “1-(2-Propynyl)-1 H-indazole compounds” (priority 1973, dated 1976).

Data set [1] relates to CH strain houseflies. Kind of data set: spray application of pyrethrum, percent knockdown as a function of time. Type of data set: in vivo. The following applies: pyrethrum 100 + synergist 100 mg/cc. As to the method:
The average percent knockdown of CH strain flies, as a function of time, resulting from spray application of pyrethrum, alone and with synergists, are given in Table XXXXIII. Duplicate tests were performed using 50 CH strain houseflies per test. Test solutions of 100 mg and 200mg of pyrethrum per cc of acetone, 200 mg of synergist per cc of acetone, and a mixture of 100 mg of pyrethrum and 100 mg of synergist per cc of acetone were prepared. The fifty CH strain houseflies were put in a 40 liter spray chamber and 1 cc of the test solution was sprayed into the test chamber with a spray pistol. The synergists alone at 200 mg/cc caused no knockdown.

The test system of data set [2] is houseflies. Kind of data set: topical application with Diazinon, Table XXVII (strain not given). It is filed as in vivo. The conditions noted are these: for mortality at 10 µg/fly: Musca domestica, topical, 24 h, Diazinon 0, synergist 10 μg/fly, read-out: percent kill after 24 hours, synergist alone (Table XXVII).

For the compound `C#CCOCc1c(Cl)ccc(Cl)c1Cl` [II-E], the “average percent knockdown, pyrethrum with synergist” value (shortened to “average percent knockdown”) in data set [1] (5 minutes) is listed as 5%; in data set [1] (10 minutes), 9%; in data set [1] (15 minutes), 17%; in data set [1] (20 minutes), 44%; in data set [1] (25 minutes) it was 55%; in data set [1] (30 minutes), 59%. For the same compound, the “average percent knockdown” value in data set [1] (40 minutes) was found to be 77%; in data set [1] (50 minutes), 93%; in data set [1] (60 minutes), 95%.

`C#CCON=Cc1ccc(Cl)cc1Cl` [I-G]: the mortality at 10 µg/fly in data set [2] stood at 0%. In addition, the “average percent knockdown” value is 7% in data set [1] (5 minutes); 12% in data set [1] (10 minutes); 31% in data set [1] (15 minutes); 36% in data set [1] (20 minutes); 59% in data set [1] (25 minutes); 66% in data set [1] (30 minutes). Besides, the “average percent knockdown” value in data set [1] (40 minutes) is given as 89%; in data set [1] (50 minutes), 93%; in data set [1] (60 minutes), 94%.

Consider `C#CCON=Cc1cccc2ccccc12` [I-I], for which, in data set [2], the mortality at 10 µg/fly is 0%. In addition, the “average percent knockdown” value in data set [1] (5 minutes) is recorded as 4%; in data set [1] (10 minutes) it was 7%; in data set [1] (15 minutes), 19%; in data set [1] (20 minutes), 29%; in data set [1] (25 minutes), 40%; in data set [1] (30 minutes), 49%. Also, the “average percent knockdown” value stood at 57% in data set [1] (40 minutes), 86% in data set [1] (50 minutes) and 92% in data set [1] (60 minutes).

In the case of `C#CCON=C(C)c1ccc(Cl)cc1` [I-D], in data set [2] (Diazinon 5 + synergist 10 μg/fly), the “percent kill after 24 hours, with Diazinon (Table XXVII)” value is on record as 100%. In addition, the mortality at 10 µg/fly in data set [2] was 0%. Besides, the “average percent knockdown” value in data set [1] (5 minutes) amounted to 6%; in data set [1] (10 minutes), 15%; in data set [1] (15 minutes) it was 26%; in data set [1] (20 minutes), 39%; in data set [1] (25 minutes) it was 52%; in data set [1] (30 minutes), 60%. In addition, the entries for the “average percent knockdown” value in data set [1] (40 minutes), in data set [1] (50 minutes) and in data set [1] (60 minutes) were 86%, 87% and 88%, respectively.
